A short description of assay [1]: Inhibition of His-tagged SUMO1/SUMO E1 /GST-tagged Aos1/Uba2/His-tagged Ubc9 (unknown origin)-mediated recombinant His/T7-tagged RanGAP1-C-terminal fragment SUMOylation assessed as change in chemical shift perturbation by 1H,15N HSQC NMR spectroscopy analysis. Further details: species or system Homo sapiens.
Assay [2] is described as follows: Inhibition of His-tagged SUMO1/SUMO E1 /His-tagged Ubc9 (unknown origin)-mediated SUMOylation using FL-AR as substrate incubated for 90 mins in presence of ATP by Western blot analysis. Further details: species or system Homo sapiens. (In general: Immunoblotting shows a protein as a band on a membrane.)
A short description of assay [3]: Inhibition of His-tagged SUMO1/GST-tagged Aos1/Uba2/His-tagged Ubc9 (unknown origin)-mediated recombinant His/T7-tagged RanGAP1-C-terminal fragment SUMOylation expressed in Escherichia coli BL21 (DE3) assessed as reduction in Ubc9-SUMO level in presence of ATP by SDS-PAGE based immunoblotting analysis. Further details: species or system Homo sapiens.
The nature of assay [4]: Inhibition of His-tagged SUMO/SAE /Ubc9 (unknown origin)-mediated recombinant 6His-tagged RanGAP1 SUMOylation in presence of ATP by HTRF analysis. Further details: species or system Homo sapiens. Background: In TR-FRET formats the signal depends on donor and acceptor labels being close together.
Assay [5] can be described thus: Inhibition of SUMO E1 (unknown origin). Further details: species or system Homo sapiens.
A short description of assay [6]: Inhibition of Plasmodium falciparum SENP1 using QTGG-AFC as substrate by fluorescence based analysis.
The nature of assay [7]: Inhibition of His-tagged SUMO1/SUMO E1 /GST-tagged Aos1/Uba2/His-tagged Ubc9 (unknown origin)-mediated recombinant His/T7-tagged RanGAP1-C2-terminal fragment SUMOylation in presence of ATP by SDS-PAGE based immunoblotting analysis. Further details: species or system Homo sapiens.
Assay [8] is described as follows: Inhibition of His-tagged SUMO1/SUMO E1 /GST-tagged Aos1/Uba2/His-tagged Ubc9 (unknown origin)-mediated recombinant His/T7-tagged RanGAP1-C-terminal fragment SUMOylation expressed in Escherichia coli BL21 (DE3) assessed as reduction in Ubc9-SUMO level measured upto 2 hrs in presence of ATP by fluorescence polarization analysis. Further details: species or system Homo sapiens. Background: Fluorescence polarisation rises when a labelled molecule tumbles more slowly, as on binding a larger partner.

Assay [9] has as its target T1, NEDD8 activating enzyme (Homo sapiens, UniProt Q8TBC4).
T1 sequence (Q8TBC4 whole entry): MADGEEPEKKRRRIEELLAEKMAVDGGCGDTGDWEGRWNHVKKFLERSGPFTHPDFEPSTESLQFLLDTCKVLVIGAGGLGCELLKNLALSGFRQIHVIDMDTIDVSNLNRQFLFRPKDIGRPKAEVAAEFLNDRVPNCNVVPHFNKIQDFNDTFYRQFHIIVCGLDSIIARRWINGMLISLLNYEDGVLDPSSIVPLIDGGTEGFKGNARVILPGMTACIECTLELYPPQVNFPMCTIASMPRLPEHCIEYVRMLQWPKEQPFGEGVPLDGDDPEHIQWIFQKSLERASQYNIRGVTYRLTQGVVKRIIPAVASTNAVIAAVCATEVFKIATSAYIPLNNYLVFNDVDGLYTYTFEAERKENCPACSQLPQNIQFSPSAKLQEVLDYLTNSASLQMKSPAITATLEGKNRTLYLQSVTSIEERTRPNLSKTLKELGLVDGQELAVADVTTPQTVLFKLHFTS
T1 sequence (Q13564 whole entry): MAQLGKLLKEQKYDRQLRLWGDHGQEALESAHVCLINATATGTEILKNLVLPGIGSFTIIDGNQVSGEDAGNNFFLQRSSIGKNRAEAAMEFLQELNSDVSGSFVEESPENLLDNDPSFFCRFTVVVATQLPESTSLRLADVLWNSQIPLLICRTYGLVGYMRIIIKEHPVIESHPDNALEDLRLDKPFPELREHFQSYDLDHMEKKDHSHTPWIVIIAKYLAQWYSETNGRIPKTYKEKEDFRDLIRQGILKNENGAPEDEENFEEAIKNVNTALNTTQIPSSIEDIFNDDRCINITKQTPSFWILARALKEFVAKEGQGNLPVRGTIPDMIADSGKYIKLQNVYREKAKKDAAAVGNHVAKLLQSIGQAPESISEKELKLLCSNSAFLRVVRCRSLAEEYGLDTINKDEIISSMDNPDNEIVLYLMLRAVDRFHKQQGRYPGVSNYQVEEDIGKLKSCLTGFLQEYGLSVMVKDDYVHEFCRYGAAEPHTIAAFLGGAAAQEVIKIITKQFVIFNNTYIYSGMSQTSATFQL
The assay is described as follows: Inhibition of NAE (unknown origin). The assay is classed as protein-complex assay.

The nature of assay [10]: Inhibition of UAE (unknown origin). Further details: species or system Homo sapiens.
Assay [11] is described as follows: Inhibition of His-tagged SUMO1/SUMO E1 /His-tagged Ubc9 (unknown origin)-mediated […] SUMOylation using FL-AR as substrate incubated for 90 mins in presence of ATP by peptide microarray-based fluorescence assay. Further details: species or system Homo sapiens.
The test system of assay [12] is LNCaP. Description: Antiproliferative activity against androgen-sensitive human LNCaP cells assessed as cell growth inhibition incubated for 48 hrs by MTT assay. The assay is classed as functional, cell-based.
Assay [13] has as its system PC-3. The assay is described as follows: Antiproliferative activity against human PC-3 cells assessed as cell growth inhibition incubated for 48 hrs by MTT assay. The class given is functional, cell-based. To be noted: PC-3, 48 h.

With `Oc1ccccc1-c1ccccc1O`, the IC50 (usually the concentration at which inhibition is half-maximal) in [1] was determined as 5800 µM.

Regarding `O=c1cc(-c2ccc(O)c(O)c2O)oc2ccccc12`, the IC50 in [2] amounted to 6 µM.

Regarding `C[C@@H]1O[C@@H](O[C@@H]2C[C@H](c3ccc4c(c3O)C(=O)C3=C(C4=O)[C@@]4(O[C@H]5CC[C@H](O)[C@H](C)O5)C(=O)C[C@](C)(O)C[C@@]4(O)C=C3)O[C@H](C)[C@H]2O)CC[C@@H]1O[C@H]1C[C@@H](O)[C@H](O)[C@@H](C)O1`, in assay [3], the half-maximal inhibitory concentration (IC50) is 11.7 µM.

On to `COC(=O)C1=C(C(=O)OC)[C@@]2([C@@H](Cc3ccc(C)cc3)Nc3ccccc3)C=C[C@@H]1O2`, for which, in assay [4], the half-inhibitory concentration (IC50) was determined as 0.2 µM.

Take `NS(=O)(=O)OC[C@@H]1C[C@@H](n2ccc3c(NC4CCc5ccccc54)ncnc32)C[C@@H]1O` (stereo partly drawn): in assay [5], the IC50 is 8.2 µM.

As for `O=C(O)CN(NC(=O)c1ccc(CNC(=O)c2cccc(C(=O)O)c2)cc1)C(=O)[C@H]1O[C@@H]1C(=O)C(Cc1cccc2ccccc12)Cc1cccc2ccccc12`, in assay [6], the IC50 is 17.9 µM.

Consider `CCOC(=O)CCc1ccc(-c2ccccc2O)c(O)c1`, for which the half-maximal inhibitory concentration (IC50) in assay [1] turned out to be 3000 µM.

As for `CO/C(=C/C(=O)O)[C@H]1c2cc3ccc(-c4ccc5cc6c(c(O)c5c4O)C(=O)C[C@@](C)(O)[C@H]6/C(=C\C(=O)O)OC)c(O)c3c(O)c2C(=O)C[C@@]1(C)O`, in [7], the half-inhibitory concentration (IC50) was 4.4 µM.

For `COc1ccc(NC(=O)[C@H](CCCN)Nc2cc(C)nc(NCCc3cccs3)n2)cc1`, the IC50 in [8] came out at 12.5 µM.

For `NS(=O)(=O)OC[C@@H]1C[C@@H](Nc2ncncc2C(=O)c2ccn(Cc3cccc(Br)c3)n2)C[C@@H]1O`, the IC50 in assay [9] was 32 µM; in assay [10] it was more than 100 µM; in assay [5] it was 0.003 µM.

The compound `O=C(O)c1cccc(C(=O)NCc2ccc(C(=O)NNC(=O)[C@H]3O[C@@H]3C(=O)C(Cc3cccc4ccccc34)Cc3cccc4ccccc34)cc2)c1` displayed an IC50 in assay [6] of 16.2 µM.

For the compound `c1coc(-c2cc(CNc3ncnc4sc5cnccc5c34)no2)c1`, the IC50 in assay [11] is 74 µM.

Take `CCCCCCCCCCCCCCCc1cccc(O)c1C(=O)O` [ANACARDIC ACID]: the IC50 in [3] was determined as 2.2 µM.

As for `CCCCCC/C=C\CCCCCCCc1cccc(O)c1C(=O)O` [GINGKOLIC ACID], in [3], the IC50 came to 3 µM.

Turning to `CC(C)[C@]12O[C@H]1[C@@H]1O[C@]13[C@]1(O[C@H]1C[C@H]1C4=C(CC[C@@]13C)C(=O)OC4)[C@@H]2O` [TRIPTOLIDE], the IC50 stood at 0.0097 µM in assay [12] and 0.0203 µM in [13].

These data come from ChEMBL document CHEMBL5113384, “Small-molecule inhibitors targeting small ubiquitin-like modifier pathway for the treatment of cancers and other diseases” (Eur J Med Chem, 2022).
